Assay results reported in patent publication US11974988B2, “Neuroprotective compositions and methods of using the same” (The Board of Supervisors of Louisiana State Univer …, priority 2018, dated 2024).
Converted amounts (≈) assume the structure as drawn. “Also recorded” adds a separate entry of the source. Where two headings read alike, the source gives them in different places. Blank lines part the entries; values can stand above or below the compound they belong to.

Legend:
[1] = tested on: activity-regulated Gln/MeAIB transport (SNAT activity) in hippocampal neurons; experiment: Activity-regulated (spontaneous, 4-AP- or K+-stimulated) [14C]-MeAIB transport in primary hippocampal neurons; type: cell-based, rat; set-up: block of transport activity: dose or concentration left out as unconfirmed; conditions: for IC50 / inhibition at 10 µM: Rattus norvegicus, Hippocampal neuron; for relative affinity for PMA-induced K+-activity-stimulated Gln/MeAIB transport activity: PMA 10 min before KCl 60 mM; for reduction of activity-regulated Gln/MeAIB transport after preconditioning: brief exposure (KCl 45 mM, Glu or NMDA), transport measured after 24 hr; for inhibition at 10 µM: read-out: block / inhibition of transport activity; for potency to inhibit activity-regulated MeAIB transport relative to a comparator, in words: spontaneous and 4-AP stimulated transport; for Active (annotation beside the compound name: active vs inactive derivatives): Table 1: SKA-41, and active and inactive derivatives
[2] = tested on: activity-regulated Gln/MeAIB transport (SNAT activity) in hippocampal neurons; conditions: cited from earlier work; for block of 14C-MeAIB transport activity: 2 mM
[3] = Max. solubility (Table 1); type: physicochemical
[4] = 4-AP-stimulated (depolarization) [14C]-MeAIB uptake, DIV16, n in brackets, read-out: SNAT Activity IC50, 4-AP
[5] = spontaneous [14C]-MeAIB uptake, DIV 19, n in brackets, read-out: SNAT Activity IC50, Spont
[6] = hippocampal neurons in vitro, 14C-MeAIB 20 μM, read-out: IC50 to inhibit activity-regulated Gln/MeAIB transport

solubility [3]: 25 µM (≈ 5.66 µg/mL)
SMILES: Nc1nc(-c2cccc3ccccc23)cs1 [SKA-75, 4-(Naphthalen-1-yl)thiazol-2-amine]
inhibition at 10 µM [1]: > 50%
inhibition of spontaneous activity-regulated 14C-MeAIB transport, in words ([1]; screens, 10 μM, GABA 2 mM): inhibited spontaneous transport activity
potency to inhibit activity-regulated MeAIB transport relative to a comparator, in words [1]: much less potent than riluzole

solubility [3]: 100 µM (≈ 19.4 µg/mL)
SMILES: Nc1nc(-c2ccc(F)cc2)cs1 [SKA-77]

solubility [3]: 100 µM (≈ 17.6 µg/mL)
SMILES: Nc1nc(-c2ccccc2)cs1 [SKA-78]

solubility [3]: 100 µM (≈ 19 µg/mL)
SMILES: Cc1ccc(-c2csc(N)n2)cc1 [SKA-79]

solubility [3]: 50 µM (≈ 10.5 µg/mL)
SMILES: Nc1nc(-c2ccc(Cl)cc2)cs1 [SKA-80]

solubility [3]: 100 µM (≈ 19 µg/mL)
SMILES: Cc1sc(N)nc1-c1ccccc1 [SKA-82]

solubility [3]: 100 µM (≈ 17.5 µg/mL)
SMILES: Cc1nc(-c2ccccc2)cs1 [SKA-88]

solubility [3]: 100 µM (≈ 18.9 µg/mL)
SMILES: Cc1nc(-c2ccccc2)c(C)s1 [SKA-89]
inhibition of spontaneous activity-regulated 14C-MeAIB transport, in words ([1]; screens, 10 μM, GABA 2 mM): inactive

solubility [3]: 100 µM (≈ 18.2 µg/mL)
SMILES: Nc1nc(-c2ccsc2)cs1 [SKA-94]
inhibition of spontaneous activity-regulated 14C-MeAIB transport, in words ([1]; screens, 10 μM, GABA 2 mM): inactive

solubility [3]: 50 µM (≈ 12 µg/mL)
SMILES: Cc1ccc(-c2csc(N)n2)c2ccccc12 [SKA-190, 4-(4-Methylnaphthalen-1-yl)thiazol-2-amine]
block of transport activity [1]: 90%
inhibition at 10 µM [1]: 90%
Active (annotation beside the compound name: active vs inactive derivatives) [1]: SKA-190 Active
inhibition of spontaneous activity-regulated 14C-MeAIB transport, in words ([1]; screens, 10 μM, GABA 2 mM): blocked spontaneous transport activity; also recorded: inhibited spontaneous transport activity

melting point: 154 to 156 °C
solubility [3]: 50 µM (≈ 12 µg/mL)
SMILES: Cc1ccc2cccc(-c3csc(N)n3)c2c1 [SKA-193, 4-(7-Methylnaphthalen-1-yl)thiazol-2-amine]
block of transport activity [1]: 90%
inhibition at 10 µM [1]: 90%
Active (annotation beside the compound name: active vs inactive derivatives) [1]: SKA-193 Active
inhibition of spontaneous activity-regulated 14C-MeAIB transport, in words ([1]; screens, 10 μM, GABA 2 mM): blocked spontaneous transport activity; also recorded: inhibited spontaneous transport activity

melting point: 178 to 179 °C
solubility [3]: 50 µM (≈ 12 µg/mL)
SMILES: Cc1ccc2cc(-c3csc(N)n3)ccc2c1 [SKA-198, 4-(6-Methylnaphthalen-2-yl)thiazol-2-amine]
inhibition at 10 µM [1]: > 50%
inhibition of spontaneous activity-regulated 14C-MeAIB transport, in words ([1]; screens, 10 μM, GABA 2 mM): inhibited spontaneous transport activity

melting point: 140 to 141 °C
solubility [3]: 25 µM (≈ 7.63 µg/mL)
SMILES: Nc1nc(-c2ccc3ccccc3c2)c(Br)s1 [SKA-220, 5-Bromo-4-(naphthalen-2-yl)thiazol-2-amine]
inhibition at 10 µM [1]: 90%
Active (annotation beside the compound name: active vs inactive derivatives) [1]: SKA-220 Active
inhibition of spontaneous activity-regulated 14C-MeAIB transport, in words ([1]; screens, 10 μM, GABA 2 mM): blocked spontaneous transport activity; also recorded: inhibited spontaneous transport activity
potency to inhibit activity-regulated MeAIB transport relative to a comparator, in words [1]: as potent as riluzole

melting point: 350 °C
solubility [3]: 50 µM (≈ 13.7 µg/mL)
SMILES: Nc1nc(-c2ccc(-c3csc(N)n3)cc2)cs1 [SKA-230, 4,4′-(1,4-Phenylene)bis(thiazol-2-amine)]

solubility [3]: 50 µM (≈ 12.6 µg/mL)
SMILES: Nc1nc(-c2ccc(-c3ccccc3)cc2)cs1 [SKA-232]

solubility [3]: 50 µM (≈ 12.7 µg/mL)
IC50 [1, 6]: ~2 µM
SMILES: Cc1sc(N)nc1-c1ccc(C)c2ccccc12 [SKA-247, 5-Methyl-4-(4-methylnaphthalen-1-yl)thiazol-2-amine]
block of transport activity [1]: 90%
inhibition at 10 µM [1]: 90%
Active (annotation beside the compound name: active vs inactive derivatives) [1]: SKA-247 Active
inhibition of spontaneous activity-regulated 14C-MeAIB transport, in words ([1]; screens, 10 μM, GABA 2 mM): blocked spontaneous transport activity; also recorded: inhibited spontaneous transport activity

melting point: 135 °C
solubility [3]: 10 µM (≈ 3.7 µg/mL)
SMILES: FC(F)(F)c1cccc(Nc2nc(-c3cccc4ccccc34)cs2)c1 [SKA-251, 4-(Naphthalen-1-yl)-N-(3-(trifluoromethyl)phenyl)thiazol-2-amine]

solubility [3]: 10 µM (≈ 3.5 µg/mL)
SMILES: Nc1nc(-c2ccc(-c3ccc(-c4csc(N)n4)cc3)cc2)cs1 [SKA-255]

melting point: 243 to 244 °C
solubility [3]: 10 µM (≈ 3.71 µg/mL)
SMILES: Clc1ccc(Nc2nc(-c3cccc4ccccc34)cs2)cc1Cl [SKA-257, N-(3,4-Dichlorophenyl)-4-(naphthalen-1-yl)thiazol-2-amine]

melting point: 225 °C
solubility [3]: 10 µM (≈ 3.03 µg/mL)
SMILES: c1ccc(Nc2nc(-c3cccc4ccccc34)cs2)nc1 [SKA-258, 4-(Naphthalen-1-yl)-N-(pyridin-2-yl)thiazol-2-amine]

melting point: 108 °C
solubility [3]: 10 µM (≈ 3.34 µg/mL)
SMILES: Cc1ccc(-c2csc(Nc3cccc(C(F)(F)F)c3)n2)cc1 [SKA-260, 4-(p-Tolyl)-N-(3-(trifluoromethyl)phenyl)thiazol-2-amine]

solubility [3]: 50 µM (≈ 12.7 µg/mL)
SMILES: c1ccc(-c2csc(Nc3ccccn3)n2)cc1 [SKA-265, 4-Phenyl-N-(pyridin-2-yl)thiazol-2-amine]

melting point: 153 °C
solubility [3]: 10 µM (≈ 3.2 µg/mL)
SMILES: FC(F)(F)c1ccc(Nc2nc(-c3ccccc3)cs2)cc1 [SKA-268, 4-Phenyl-N-(4-(trifluoromethyl)phenyl)thiazol-2-amine]

melting point: 155 °C
solubility [3]: 10 µM (≈ 3.34 µg/mL)
SMILES: Cc1ccc(-c2csc(Nc3ccc(C(F)(F)F)cc3)n2)cc1 [SKA-269, 4-(p-Tolyl)-N-(4-(trifluoromethyl)phenyl)thiazol-2-amine]

melting point: 135 to 137 °C
solubility [3]: 25 µM (≈ 6.31 µg/mL)
SMILES: c1ccc(Nc2nc(-c3ccccc3)cs2)cc1 [SKA-292, N,4-Diphenylthiazol-2-amine]

The remaining lines, values behind:

SMILES: Cc1ccc(-c2nc(N)sc2Br)c2ccccc12
fold difference 4-AP IC50 over Spont IC50 [1]: 4.4 x
IC50 [1, 4]: 4.4 µM
IC50 [1, 5]: 1 µM

SMILES: Nc1nc(-c2ccc(OC(F)(F)F)cc2)c(Cl)s1
fold difference 4-AP IC50 over Spont IC50 [1]: 1.6 x
IC50 [1, 4]: 7.4 µM
IC50 [1, 5]: 4.6 µM

SMILES: Cc1ccc(-c2nc(N)sc2Cl)c2ccccc12
fold difference 4-AP IC50 over Spont IC50 [1]: 5.2 x
IC50 [1, 4]: 7.4 µM
IC50 [1, 5]: 1.4 µM

SMILES: Nc1nc(-c2ccc3ccccc3c2)c(F)s1
fold difference 4-AP IC50 over Spont IC50 [1]: 1.3 x
IC50 [1, 4]: 17.9 µM
IC50 [1, 5]: 13.3 µM

SMILES: Nc1ccncc1 [4-AP, 4-aminopyridine, reference compound]
maximal stimulation of high-affinity 14C-MeAIB transport ([1]; 200 μM 4-AP): ~2 ×

SMILES: NC(=O)CC[C@H](N)C(=O)O [Gln, glutamine]
block of 14C-MeAIB transport activity [2]: ~90%
Km ([2]; read-out: Km of the activity-regulated Gln/MeAIB transport system): 30 µM
relative affinity for PMA-induced K+-activity-stimulated Gln/MeAIB transport activity [1]: ~97 µM

SMILES: N[C@@H](CCC(=O)O)C(=O)O [Glu, glutamate]
reduction of activity-regulated Gln/MeAIB transport after preconditioning [1]: ~50%

SMILES: [Cl-].[K+] [KCl]
reduction of activity-regulated Gln/MeAIB transport after preconditioning [1]: ~50%

SMILES: CN[C@H](CC(=O)O)C(=O)O [NMDA, N-methyl-D-aspartate, reference compound]
reduction of activity-regulated Gln/MeAIB transport after preconditioning [1]: ~50%

SMILES: CCCCCCCCCCCCCC(=O)O[C@@H]1[C@@H](C)[C@@]2(O)[C@@H](C=C(CO)C[C@]3(O)C(=O)C(C)=C[C@@H]23)[C@@H]2C(C)(C)[C@]12OC(C)=O [PMA, phorbal myristate acetate, reference compound]
stimulation of 14C-MeAIB transport ([1]; PMA 10 min prior to KCl (60 mM) depolarization): two-fold

SMILES: Nc1nc(-c2ccc3ccccc3c2)cs1 [SKA-76, 4-(Naphthalen-2-yl)thiazol-2-amine]
solubility [3]: 25 µM (≈ 5.66 µg/mL)
inhibition at 10 µM [1]: > 50%
inhibition of spontaneous activity-regulated 14C-MeAIB transport, in words ([1]; screens, 10 μM, GABA 2 mM): inhibited spontaneous transport activity
potency to inhibit activity-regulated MeAIB transport relative to a comparator, in words [1]: much less potent than riluzole

SMILES: Nc1nc(-c2ccc3ccccc3c2)c(Cl)s1 [SKA-379, 5-Chloro-4-(naphthalen-2-yl)thiazol-2-amine]
potency to inhibit activity-regulated MeAIB transport relative to a comparator, in words [1]: as active as SKA-219 and SKA-220, respectively

SMILES: C[C@H](N)C(=O)O [alanine]
block of 14C-MeAIB transport activity [2]: ~90%

SMILES: Cc1ccc(-c2csc(N)n2)c2ccccc12 [drawing 63]
fold difference 4-AP IC50 over Spont IC50 [1]: 4.5 x
IC50 [1, 4]: 11.7 µM
IC50 [1, 5]: 2.6 µM

SMILES: Nc1nc(-c2cccc3ccccc23)c(Cl)s1 [drawing 70]
fold difference 4-AP IC50 over Spont IC50 [1]: 4.3 x
IC50 [1, 4]: 5.2 µM
IC50 [1, 5]: 1.2 µM

SMILES: Nc1nc(-c2ccc3ccccc3c2)c(Cl)s1 [drawing 71]
fold difference 4-AP IC50 over Spont IC50 [1]: 1.5 x
IC50 [1, 4]: 9.3 µM
IC50 [1, 5]: 6.2 µM

SMILES: NCC(=O)O [glycine]
block of 14C-MeAIB transport activity [2]: ~90%

SMILES: N[C@@H](Cc1c[nH]cn1)C(=O)O [histidine]
block of 14C-MeAIB transport activity [2]: ~90%

SMILES: Nc1nnc(-c2cccc(Cl)c2Cl)c(N)n1 [lamotrigine, reference compound]
IC50 [1, 6]: 20 µM

SMILES: O=C1NC(=O)C(c2ccccc2)(c2ccccc2)N1 [phenytoin, reference compound]
potency of riluzole relative to phenytoin to inhibit activity-regulated Gln/MeAIB transport [1]: 50 ×
IC50 [1, 6]: 57 µM

SMILES: O=C(O)[C@@H]1CCCN1 [proline]
block of 14C-MeAIB transport activity [2]: ~90%

SMILES: CNCC(=O)O [sarcosine]
block of 14C-MeAIB transport activity [2]: ~90%
relative affinity for PMA-induced K+-activity-stimulated Gln/MeAIB transport activity [1]: ~8 µM

SMILES: CN[C@@H]1C[C@H]2O[C@@](C)([C@@H]1OC)n1c3ccccc3c3c4c(c5c6ccccc6n2c5c31)C(=O)NC4 [staurosporine, reference compound]
effect on PMA stimulation of 14C-MeAIB transport ([1]; staurosporine 200 nM): abolished

SMILES: COc1ccc(CCN(C)CCCC(C#N)(c2ccc(OC)c(OC)c2)C(C)C)cc1OC (stereo not drawn) [verapamil, reference compound]
inhibition of spontaneous activity-regulated 14C-MeAIB transport, in words [1]: blocked
